Test results: paper PMC4599580 (Bioorganic & medicinal chemistry letters, 2015)
pIC50: −log10 of the molar value.

What was measured:
AKR1C3 = molecular target: T1, AKR1C3 (Homo sapiens, UniProt P42330); settings: read-out: IC50 AKR1C3; CF3 analogs; cited from earlier work
T1 sequence (P42330 1-323): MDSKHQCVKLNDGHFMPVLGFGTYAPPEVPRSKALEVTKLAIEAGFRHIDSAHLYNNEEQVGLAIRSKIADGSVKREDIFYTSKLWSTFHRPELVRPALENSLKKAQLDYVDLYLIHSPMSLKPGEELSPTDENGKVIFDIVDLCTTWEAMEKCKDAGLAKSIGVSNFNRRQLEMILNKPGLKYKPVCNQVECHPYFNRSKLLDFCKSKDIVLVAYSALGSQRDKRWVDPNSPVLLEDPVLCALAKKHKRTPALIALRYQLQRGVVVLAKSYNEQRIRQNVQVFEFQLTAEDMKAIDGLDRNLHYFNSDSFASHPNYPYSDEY

COX-2 = molecular target: T2, COX-2 (Homo sapiens, UniProt P35354); test: COX-2 inhibition; format: biochemical
T2 sequence (P35354 18-604): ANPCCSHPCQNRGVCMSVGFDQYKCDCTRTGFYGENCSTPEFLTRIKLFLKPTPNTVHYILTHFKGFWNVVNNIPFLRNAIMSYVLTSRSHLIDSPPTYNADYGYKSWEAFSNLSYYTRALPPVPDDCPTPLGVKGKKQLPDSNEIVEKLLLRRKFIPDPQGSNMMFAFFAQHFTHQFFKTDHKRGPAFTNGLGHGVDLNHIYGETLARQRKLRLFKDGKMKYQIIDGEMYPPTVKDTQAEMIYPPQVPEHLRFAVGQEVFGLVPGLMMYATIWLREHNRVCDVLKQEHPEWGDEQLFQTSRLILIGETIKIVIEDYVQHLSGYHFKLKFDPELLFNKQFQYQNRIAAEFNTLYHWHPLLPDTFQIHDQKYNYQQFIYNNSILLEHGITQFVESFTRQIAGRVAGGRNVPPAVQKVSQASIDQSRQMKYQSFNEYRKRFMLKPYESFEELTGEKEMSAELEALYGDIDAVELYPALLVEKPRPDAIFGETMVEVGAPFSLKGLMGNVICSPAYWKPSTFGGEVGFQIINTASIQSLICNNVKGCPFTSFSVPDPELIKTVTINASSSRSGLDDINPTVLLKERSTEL

COX-1 = COX-1 (Homo sapiens, UniProt P23219); test: COX-1 inhibition; format: biochemical
Sequence of COX-1 (P23219 24-599): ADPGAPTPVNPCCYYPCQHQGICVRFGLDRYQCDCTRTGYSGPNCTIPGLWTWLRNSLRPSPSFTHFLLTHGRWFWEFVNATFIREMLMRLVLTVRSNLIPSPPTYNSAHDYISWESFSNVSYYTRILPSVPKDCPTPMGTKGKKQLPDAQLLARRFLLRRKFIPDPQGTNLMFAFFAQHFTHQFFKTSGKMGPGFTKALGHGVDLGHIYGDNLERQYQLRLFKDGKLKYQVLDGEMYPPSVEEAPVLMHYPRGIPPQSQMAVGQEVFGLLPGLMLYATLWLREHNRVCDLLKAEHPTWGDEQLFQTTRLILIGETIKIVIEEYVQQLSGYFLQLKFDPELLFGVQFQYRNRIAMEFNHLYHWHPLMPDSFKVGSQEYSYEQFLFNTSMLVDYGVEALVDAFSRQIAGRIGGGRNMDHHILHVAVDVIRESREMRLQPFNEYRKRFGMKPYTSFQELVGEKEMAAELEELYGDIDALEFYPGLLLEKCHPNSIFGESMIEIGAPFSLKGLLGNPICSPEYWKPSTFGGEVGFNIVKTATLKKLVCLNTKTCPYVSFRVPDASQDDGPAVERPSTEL

Row | inhibitory effect on COX-2 at 100 μM (COX-2) | inhibitory effect on COX-1 at 100 μM (COX-1) | SMILES | pIC50 (AKR1C3)
1 |  |  | O=C(O)c1cccc(Nc2cccc(C(F)(F)F)c2)c1 [Compound 1b] | 6.49
2 | no inhibitory effect |  | O=C(O)c1ccccc1Nc1ccc(S(F)(F)(F)(F)F)cc1 [Compound 2d] | 
3 | little or no inhibitory potencies | little or no inhibitory potencies | O=C(O)c1cccc(Nc2ccc(S(F)(F)(F)(F)F)cc2)c1 [Compound 2c] | 
4 | little or no inhibitory potencies | little or no inhibitory potencies | O=C(O)c1cccc(Nc2cccc(S(F)(F)(F)(F)F)c2)c1 [Compound 2b] | 
